Reference: publication PMC2241863 (Nucleic Acids Research, 2007)

Legend:
bacterial RNase P = settings: 'low-salt' buffer, cited from earlier work; for IC50: read-out: IC50 for inhibition of bacterial RNase P
[1] = tested on: E. coli RNase P holoenzyme; settings: cited from earlier work
E. coli RPR = settings: cited from earlier work
human RNase P = settings: cited from earlier work
[2] = tested on: E. coli RNase P holoenzyme; test: E. coli RNase P holoenzyme ptRNATyr processing assay, 'high-salt' buffer; type: biochemical, Escherichia coli; settings: 1 mM added to assay

SMILES	IC50 (bacterial RNase P) [µM]	Effect on E. coli RNase P holoenzyme activity [2]	also measured
NC[C@@H]1O[C@H](O[C@H]2[C@@H](O)[C@H](O[C@@H]3[C@@H](O)[C@H](N)C[C@H](N)[C@H]3O[C@H]3O[C@H](CN)[C@@H](O)[C@H](O)[C@H]3N)O[C@@H]2CO)[C@H](N)[C@@H](O)[C@@H]1O [NeoB, neomycin B]	60	–	Increase in IC50 in 'high-salt' instead of 'low-salt' buffer [1]: 7 fold; Increase in IC50 with mutations in E. coli RPR L15 loop (E. coli RPR; L15 mutations that weaken Mg2+ binding): 3 fold
N=C(N)NCCC[C@H](N)C(=O)NC[C@@H]1O[C@H](O[C@H]2[C@@H](O)[C@H](O[C@@H]3[C@@H](O)[C@H](NC(=O)[C@@H](N)CCCNC(=N)N)C[C@H](NC(=O)[C@@H](N)CCCNC(=N)N)[C@H]3O[C@H]3O[C@H](CNC(=O)[C@@H](N)CCCNC(=N)N)[C@@H](O)[C@H](O)[C@H]3NC(=O)[C@@H](N)CCCNC(=N)N)O[C@@H]2CO)[C@H](NC(=O)[C@@H](N)CCCNC(=N)N)[C@@H](O)[C@@H]1O [NeoR6]	0.125	–	Potency of NeoR6 relative to NeoB in inhibiting bacterial RNase P (bacterial RNase P): 500 fold; Effectiveness against human RNase P compared with bacterial RNase P (human RNase P): not as effective
NC[C@@H]1O[C@H](O[C@H]2[C@@H](O)[C@H](O[C@@H]3[C@@H](O)[C@H](N)C[C@H](N)[C@H]3O[C@H]3O[C@H](CO)[C@@H](O)[C@H](O)[C@H]3N)O[C@@H]2CO)[C@H](N)[C@@H](O)[C@@H]1O [Par, paromomycin]	–	–	Fold weaker than NeoB in inhibiting bacterial RPR (E. coli RPR): 6 fold
N=C(N)NCCC[C@H](N)C(=O)O [arginine]	–	no effect	–
N=C(N)N [guanidine]	–	no effect	–
NCCCC[C@H](N)C(=O)O [lysine]	–	no effect	–
